Test [1] deals with T1, HEK-293-αVβ3 cells (Homo sapiens, UniProt P05106+P06756). Put plainly: αVβ3 Cell Adhesion to Fibrinogen Assay. It is filed as cell-based. On the set-up: IC50; other: dose reducing by 50% the adhesion of HEK-293-αVβ3 cells to fibrinogen; untreated cells 100% adhesion, 10 mM EDTA 0%. Conditions: for IC50: dose reducing by 50% the adhesion of HEK-293-αVβ3 cells to fibrinogen, separate determinations listed. An excerpt:
(§1) HEK-293 Cells Expressing αVβ3. HEK-293 cells were transfected using lipofectamine 2000 (Invitrogen #11668030) with the cDNA for αV using the pEF1/V5-His A vector and the cDNA for β3 using the vector pcDNA3.1. Cells expressing αVβ3 were identified by their reaction with murine monoclonal antibodies (mAbs) LM609 and 7E3, and stable cell lines were established by repetitive sorting using LM609. […] HEK-293-αVβ3 cells for assays are counted in an automated cell counter (ADVIA 120) and adjusted to values appropriate for each assay.
αVβ3 Cell Adhesion to Fibrinogen Assay. Polystyrene 96-well microtiter plates (Costar, 3590) are precoated with 3.5 μg/mL of purified fibrinogen (Enzyme Research Laboratories) in 0.15 M NaCl, 0.01 M Tris/HCL, pH 7.4 for 1 hour at 37° C. The wells are then washed and incubated with HEPES-Buffered Modified Tyrode's solution (HBMT; 0.128 M NaCl, 10 mM HEPES, 12 mM NaHCO3, 0.4 mM NaH2PO4, 2.7 mM KCl, 0.35% bovine serum albumin (Fisher), 0.1% glucose, pH 7.4) for 1 hour at room temperature or overnight at 4° C. Wells are washed with HBMT containing 1 mM Mg2+ and 2 mM Ca2+ and then 50 μL of HEK-293-αVβ3 cells that have been pretreated with the compound to be tested for 20 minutes at room temperature are added to each well at a concentration of 3,000 cells/μL. After 30-32 minutes the wells are washed with HBMT containing Ca2+ and Mg2+ three times and then the adherent cells are lysed and the acid phosphatase activity that is released is measured by: 1. adding phosphatase substrate (Sigma EC 224-246-5) at 2 mg/mL in 0.1 M Na citrate, pH 5.6, 0.1% triton X-100 for 1 hour at room temperature; 2. stopping the reaction by adding 50 μL of 2 M NaOH; and 3. analyzing the samples in a spectrophotometer at 405 nm. In each assay, 10 mM EDTA is used as a positive control and untreated cells are used as a negative control. The IC50 is the dose of test compound that reduces by 50% the adhesion of the HEK-293-αVβ3 cells, taking the results with untreated cells as 100% and the results in the presence of EDTA as 0%. In some instances more than one IC50 determination was made, in which case, results of separate determinations are reported. IC50's were not determined for all compounds in the table; for some of these test compounds the inhibition at specific doses are reported. In some instances, the test compound produced a greater reduction than 10 mM EDTA, and these are shown as negative numbers.

In test [2] the target is T1, HEK-293-αVβ3 cells. Briefly: AP5 Binding Assay. In kind it is cell-based. Conditions: for activation at 10 µM: read-out: AP5 expression induced at the highest concentration; for EC50: concentration inducing 50% of the AP5 expression induced by 1 μM cilengitide.
Description: as §1
AP5 Binding Assay. HEK-293-αVβ3 cells are harvested using 0.05% trypsin 0.5 mM EDTA, washed with HBMT once, and resuspended in HBMT containing 1 mM Mg2+ and 2 mM Ca2+. The cells are counted and adjusted to 0.5×10^6 cells per sample. The compound to be tested and fluorescently labeled mAb AP5 (either Alexa 488 or Alexa 674; 10 μg/mL) are added and incubated for 30 minutes at 37° C. The cells are then washed and analyzed by flow cytometry (BD FACSCalibur) at the appropriate wavelength for detecting the AP5 fluorophore. In each assay, cilengitide (1 μM) and 10 mM EDTA are included as positive controls and untreated cells are used as the negative control. The concentration of the test compound required to induce the expression of 50% of the AP5 expression induced by cilengitide is calculated and defined as the EC50. The EC50 for cilengitide was determined based on the expression induced by EDTA.

[3] abbreviates: @10 μM, relative to AP5 expression induced by cilengitide.

These results are taken from patent US11192889B2, “Tetrahydronaphthyridinepentanamide integrin antagonists” (The Rockefeller University, priority 2016, dated 2021).

Molecules are shown by their SMILES. Where “and” joins values, the source holds several entries; their conditions need not be identical. Equal values may be shown once.

T1 sequence (P05106 whole entry): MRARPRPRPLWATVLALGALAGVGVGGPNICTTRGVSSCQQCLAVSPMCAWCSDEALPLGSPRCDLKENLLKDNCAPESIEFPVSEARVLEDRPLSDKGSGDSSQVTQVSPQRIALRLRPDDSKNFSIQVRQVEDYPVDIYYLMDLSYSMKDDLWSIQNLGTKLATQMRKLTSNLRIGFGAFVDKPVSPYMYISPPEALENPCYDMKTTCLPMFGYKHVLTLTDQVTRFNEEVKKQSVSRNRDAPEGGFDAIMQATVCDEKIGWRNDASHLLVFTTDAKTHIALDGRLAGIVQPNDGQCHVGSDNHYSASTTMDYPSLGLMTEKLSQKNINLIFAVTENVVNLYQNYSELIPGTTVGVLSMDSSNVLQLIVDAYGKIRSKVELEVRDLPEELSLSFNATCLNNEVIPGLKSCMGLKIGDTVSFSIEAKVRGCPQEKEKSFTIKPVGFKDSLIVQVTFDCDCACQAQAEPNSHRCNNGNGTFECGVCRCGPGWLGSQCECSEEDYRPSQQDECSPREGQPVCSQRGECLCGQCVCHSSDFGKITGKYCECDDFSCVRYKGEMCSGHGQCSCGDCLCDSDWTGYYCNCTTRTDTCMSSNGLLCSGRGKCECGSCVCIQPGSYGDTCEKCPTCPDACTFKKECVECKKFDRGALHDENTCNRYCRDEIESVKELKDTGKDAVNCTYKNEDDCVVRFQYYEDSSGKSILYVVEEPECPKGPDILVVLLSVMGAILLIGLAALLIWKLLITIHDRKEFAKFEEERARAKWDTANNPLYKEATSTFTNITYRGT
T1 sequence (P06756 whole entry): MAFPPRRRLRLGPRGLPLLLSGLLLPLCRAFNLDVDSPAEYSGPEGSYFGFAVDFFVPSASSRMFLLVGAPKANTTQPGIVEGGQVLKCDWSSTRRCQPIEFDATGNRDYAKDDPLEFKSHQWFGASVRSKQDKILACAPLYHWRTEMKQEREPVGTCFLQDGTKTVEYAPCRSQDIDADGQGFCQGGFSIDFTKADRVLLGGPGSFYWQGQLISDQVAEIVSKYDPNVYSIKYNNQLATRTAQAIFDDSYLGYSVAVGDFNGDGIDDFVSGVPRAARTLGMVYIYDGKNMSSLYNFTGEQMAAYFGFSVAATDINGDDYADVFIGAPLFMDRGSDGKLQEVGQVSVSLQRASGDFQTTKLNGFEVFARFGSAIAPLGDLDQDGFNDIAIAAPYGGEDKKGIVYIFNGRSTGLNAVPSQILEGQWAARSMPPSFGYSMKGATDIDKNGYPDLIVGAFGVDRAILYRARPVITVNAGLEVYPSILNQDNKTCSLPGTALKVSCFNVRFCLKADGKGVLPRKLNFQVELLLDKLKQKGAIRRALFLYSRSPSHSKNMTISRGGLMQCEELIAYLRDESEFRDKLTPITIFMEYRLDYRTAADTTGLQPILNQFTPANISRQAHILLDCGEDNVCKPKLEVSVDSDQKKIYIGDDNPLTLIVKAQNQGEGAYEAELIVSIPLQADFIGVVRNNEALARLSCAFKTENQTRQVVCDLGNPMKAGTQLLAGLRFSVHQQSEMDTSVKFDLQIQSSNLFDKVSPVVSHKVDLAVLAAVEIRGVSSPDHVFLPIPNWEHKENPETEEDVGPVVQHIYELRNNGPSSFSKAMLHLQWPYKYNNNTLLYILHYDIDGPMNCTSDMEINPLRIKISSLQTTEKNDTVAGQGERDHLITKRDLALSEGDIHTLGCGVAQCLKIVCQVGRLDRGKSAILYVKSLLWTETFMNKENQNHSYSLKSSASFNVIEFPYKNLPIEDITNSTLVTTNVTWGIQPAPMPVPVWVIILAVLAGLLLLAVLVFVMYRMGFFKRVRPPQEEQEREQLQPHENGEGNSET

As to `O=C(CCCCc1ccc2c(n1)NCCC2)NCCC(NS(=O)(=O)c1ccc(Oc2ccccc2)cc1)C(=O)O` (centres unmarked) [Example 48], the IC50 (usually the concentration that inhibits the measured activity by half) at HEK-293-αVβ3 cells [1] is > 10000 nM.

For `O=C(CCCCc1ccc2c(n1)NCCC2)NCC[C@@H](NC(=O)OCc1ccccc1)C(=O)O` [Example 4, (2R)-2-(Benzyloxycarbonylamino)-4-[5-(5,6,7,8-tetrahydro-1,8-naphthyridin-2-yl)pentanoylamino]butanoic acid], on HEK-293-αVβ3 cells [1], the half-inhibitory concentration (IC50) was 225 nM and 773 nM and 952 nM and 537 nM and 612 nM and 683 nM. Moreover, the activation at 10 µM on HEK-293-αVβ3 cells [2] (setting [3]) was found to be 5%. Besides, the 50% effective concentration (EC50) – broadly, the concentration at which the effect is half-maximal – on HEK-293-αVβ3 cells [2] was > 10000 nM.

In the case of `CC1(C)[C@@H]2CC[C@]1(CS(=O)(=O)NC(CCNC(=O)CCCCc1ccc3c(n1)NCCC3)C(=O)O)C(=O)C2` (some centres unmarked) [Example 50], the IC50 on HEK-293-αVβ3 cells [1] was < 100 nM. For the same compound, the activation at 10 µM on HEK-293-αVβ3 cells [2] (setting [3]) came to 16%. The EC50 at HEK-293-αVβ3 cells [2] is > 10000 nM.

`COc1ccc(C(CCNC(=O)CCCCc2ccc3c(n2)NCCC3)C(=O)O)cn1` (centres unmarked) [Example 79, 2-(6-methoxy-3-pyridyl)-4-[5-(5,6,7,8-tetrahydro-1,8-naphthyridin-2-yl)pentanoylamino]butanoic acid]: at HEK-293-αVβ3 cells [1], the IC50 was 532 nM. Also, the activation at 10 µM on HEK-293-αVβ3 cells [2] (setting [3]) stood at 19%. At HEK-293-αVβ3 cells [2], the EC50 was > 10000 nM.

The compound `O=C(CCCCc1ccc2c(n1)NCCC2)NCCC(C(=O)O)c1cnc2ccccc2c1` (single isomer, unassigned) [Example 90, 2-(3-quinolyl)-4-[5-(5,6,7,8-tetrahydro-1,8-naphthyridin-2-yl)pentanoylamino]butanoic acid] displayed an IC50 at HEK-293-αVβ3 cells [1] of 228 nM. For the same compound, the “AP5 expression induced at the highest concentration” value at HEK-293-αVβ3 cells [2] (setting [3]) worked out at 11%. Also, the EC50 at HEK-293-αVβ3 cells [2] was > 10000 nM.

In turn, `O=C(CCCCc1ccc2c(n1)NCCC2)NCC[C@@H](Nc1nc2ccccc2o1)C(=O)O` [Example 85, (R)-2-(benzo[d]oxazol-2-ylamino)-4-(5-(5,6,7,8-tetrahydro-1,8-naphthyridin-2-yl)pentanamido)butanoic acid] gave a concentration for half-maximal inhibition (IC50) at HEK-293-αVβ3 cells [1] of 151 nM. Also, the activation at 10 µM on HEK-293-αVβ3 cells [2] (setting [3]) is 5%. Moreover, the EC50 on HEK-293-αVβ3 cells [2] was > 10000 nM.

For `O=C(CCCCc1ccc2c(n1)NCCC2)NCCC(C(=O)O)n1cc(-c2ccccc2)nn1` (centres unmarked) [Example 76, 2-(4-phenyltriazol-1-yl)-4-[5-(5,6,7,8-tetrahydro-1,8-naphthyridin-2-yl)pentanoylamino]butanoic acid], the IC50 against HEK-293-αVβ3 cells [1] came out at 939 nM. Moreover, the activation at 10 µM at HEK-293-αVβ3 cells [2] (setting [3]) is 9%. Further, on HEK-293-αVβ3 cells [2], the EC50 was > 10000 nM.

On HEK-293-αVβ3 cells [1], `O=C(CCCCc1ccc2c(n1)NCCC2)NCCC(NC(=O)OCc1ccc(F)cc1)C(=O)O` (centres unmarked) [Example 67] gave an IC50 of 320 nM. For the same compound, the activation at 10 µM on HEK-293-αVβ3 cells [2] (setting [3]) amounted to 13%. In addition, at HEK-293-αVβ3 cells [2], the half-maximal effective concentration (EC50) is > 10000 nM.

On to `O=C(CCCCc1ccc2c(n1)NCCC2)NCCC(NS(=O)(=O)c1ccc2ccccc2c1)C(=O)O` (centres unmarked) [Example 45], for which the inhibition (commonly the share of the control response that was lost under treatment) at specific dose 0.1 on HEK-293-αVβ3 cells [1] (dose 0.1 (table in μM), untreated cells 100% adhesion, 10 mM EDTA 0%) is listed as 40%.

Take `O=C(CCCCc1ccc2c(n1)NCCC2)NCC[C@H](NC(=O)OCc1ccccc1)C(=O)O` [Example 3, (2S)-2-(Benzyloxycarbonylamino)-4-[5-(5,6,7,8-tetrahydro-1,8-naphthyridin-2-yl)pentanoylamino]butanoic acid]: the half-maximal inhibitory concentration (IC50) on HEK-293-αVβ3 cells [1] was 146 nM and 484 nM and 699 nM and 362 nM and 324 nM and 344 nM. Moreover, the activation at 10 µM on HEK-293-αVβ3 cells [2] (setting [3]) was found to be 16%. Further, at HEK-293-αVβ3 cells [2], the EC50 is > 10000 nM.

`O=C(CCCCc1ccc2c(n1)NCCC2)NCCC(NC(=O)OCc1ccccc1)C(=O)O` (centres unmarked) [Example 7, 2-(Benzyloxycarbonylamino)-4-[5-(5,6,7,8-tetrahydro-1,8-naphthyridin-2-yl)pentanoylamino]butanoic acid]: on HEK-293-αVβ3 cells [1], the 50% inhibitory concentration (IC50) was 407 nM and 570 nM and 337 nM and 428 nM. In addition, at HEK-293-αVβ3 cells [2] (setting [3]), the activation at 10 µM amounted to 15%. Also, the EC50 at HEK-293-αVβ3 cells [2] is > 10000 nM.

Consider `CC(C)[C@H]1C(=O)N[C@@H](CCCN=C(N)N)C(=O)NCC(=O)N[C@@H](CC(=O)O)C(=O)N[C@H](Cc2ccccc2)C(=O)N1C` [cilengitide, reference compound], for which, on HEK-293-αVβ3 cells [2] (1 μM cilengitide, average±SD of 17 experiments), the AP5 expression is on record as 42.5±8.0 arbitrary fluorescence units.

Regarding `COC(=O)C(CCNC(=O)CCCCc1ccc2c(n1)NCCC2)c1ccccc1` (centres unmarked) [Example 8, Methyl 2-phenyl-4-[5-(5,6,7,8-tetrahydro-1,8-naphthyridin-2-yl)pentanoylamino]butanoate], the IC50 on HEK-293-αVβ3 cells [1] is > 10000 nM.

For `O=C(CCCCc1ccc2c(n1)NCCC2)NCCC(NC(=O)c1nc2ccccc2n1CC1CC1)C(=O)O` (centres unmarked) [Example 73, 2-[[1-(cyclopropylmethyl)benzimidazole-2-carbonyl]amino]-4-[5-(5,6,7,8-tetrahydro-1,8-naphthyridin-2-yl)pentanoylamino]butanoic acid], at HEK-293-αVβ3 cells [1], the IC50 was 502 nM and 142 nM. On HEK-293-αVβ3 cells [2] (setting [3]), the activation at 10 µM worked out at 2.5%. Also, the EC50 at HEK-293-αVβ3 cells [2] is > 10000 nM.

As for `O=C(CCCCc1ccc2c(n1)NCCC2)NCCC(NC(=O)OCc1ccccc1F)C(=O)O` (centres unmarked) [Example 65], inhibition on HEK-293-αVβ3 cells [1] was half-maximal at 120 nM (IC50). On HEK-293-αVβ3 cells [2] (setting [3]), the activation at 10 µM is 13%. Also, at HEK-293-αVβ3 cells [2], the 50% effective concentration (EC50) is > 10000 nM.

As for `COC(=O)[C@H](CCNC(=O)CCCCc1ccc2c(n1)NCCC2)NC(=O)OCc1ccccc1` [Example 2, Methyl (2S)-2-(benzyloxycarbonylamino)-4-[5-(5,6,7,8-tetrahydro-1,8-naphthyridin-2-yl)pentanoylamino]butanoate], the IC50 at HEK-293-αVβ3 cells [1] was 286 nM and 1680 nM. At HEK-293-αVβ3 cells [2] (setting [3]), the activation at 10 µM came out at 19%. In addition, at HEK-293-αVβ3 cells [2], the concentration giving a half-maximal response (EC50) was > 10000 nM.

With `COC(=O)C(C)CCNC(=O)CCCCc1ccc2c(n1)NCCC2` (centres unmarked) [Example 10, Methyl 2-methyl-4-[5-(5,6,7,8-tetrahydro-1,8-naphthyridin-2-yl)pentanoylamino]butanoate], on HEK-293-αVβ3 cells [1], the IC50 is > 10000 nM.

With `O=C(CCCCc1ccc2c(n1)NCCC2)NCCC(NC(=O)Nc1ccc(Oc2ccccc2)cc1)C(=O)O` (centres unmarked) [Example 59], on HEK-293-αVβ3 cells [1], the IC50 was > 10000 nM.

As to `CC(CCNC(=O)CCCCc1ccc2c(n1)NCCC2)C(=O)O` (centres unmarked) [Example 12, 2-Methyl-4-[5-(5,6,7,8-tetrahydro-1,8-naphthyridin-2-yl)pentanoylamino]butanoic acid], the IC50 against HEK-293-αVβ3 cells [1] is > 10000 nM.

For the compound `COC(=O)C(CCNC(=O)CCCCc1ccc2c(n1)NCCC2)Cc1ccccc1` (centres unmarked) [Example 11, Methyl 2-benzyl-4-[5-(5,6,7,8-tetrahydro-1,8-naphthyridin-2-yl)pentanoylamino]butanoate], at HEK-293-αVβ3 cells [1], the IC50 was > 10000 nM.

As for `COC(=O)[C@@H](CCNC(=O)CCCCc1ccc2c(n1)NCCC2)NC(=O)OCc1ccccc1` [Example 6, Methyl (2R)-2-(benzyloxycarbonylamino)-4-[5-(5,6,7,8-tetrahydro-1,8-naphthyridin-2-yl)pentanoylamino]butanoate], the IC50 on HEK-293-αVβ3 cells [1] is > 10000 nM.

For `O=C(CCCCc1ccc2c(n1)NCCC2)NCCC(Cc1ccccc1)C(=O)O` (centres unmarked) [Example 13, 2-Benzyl-4-[5-(5,6,7,8-tetrahydro-1,8-naphthyridin-2-yl)pentanoylamino]butanoic acid], the IC50 on HEK-293-αVβ3 cells [1] was > 10000 nM.

In turn, `O=C(CCCCc1ccc2c(n1)NCCC2)NCCC(C(=O)O)n1cnc(-c2ccccc2)n1` (single isomer, unassigned) [Example 94, (S or R)-2-(3-phenyl-1,2,4-triazol-1-yl)-4-[5-(5,6,7,8-tetrahydro-1,8-naphthyridin-2-yl)pentanoylamino]butanoic acid] displayed an IC50 at HEK-293-αVβ3 cells [1] of 373 nM.
